SMILES strings stand for the structures. pIC50: −log10 of the molar value. Active and inactive are the calls of the source. No cut-off for these calls is given here.

Test [1] is described as follows: Antiproliferative activity against human KB cells measured after 72 hrs by MTT assay. The class given is functional, cell-based. A general note: Tetrazolium assays rely on reduction of a dye to a coloured formazan, in cell work by metabolically active cells.
Test [2] can be described thus: Antiproliferative activity against human HT1080 cells measured after 72 hrs by MTT assay. In kind it is functional, cell-based. To be noted: HT-1080, 72 h.
A short description of test [3]: Antiproliferative activity against human SGC7901 cells measured after 72 hrs by MTT assay. To be noted: SGC-7901, 72 h. In kind it is functional, cell-based.
Test [4] can be described thus: Inhibition of porcine brain tubulin polymerization measured after 60 mins by fluorescence analysis. Set-up: species or system Sus scrofa.
The nature of test [5]: Cell cycle arrest in human KB cells assessed as accumulation at G2/M-phase at 0.2 uM measured up to 60 hrs by propidium iodide staining-based flow cytometry. The class given is functional. (In flow cytometry, cells or beads pass a laser one at a time.)
Test [6] in a line: Cell cycle arrest in human KB cells assessed as accumulation at G2/M-phase up to 0.2 uM measured after 24 hrs by propidium iodide staining-based flow cytometry. The class given is functional.
Test [7] is described as follows: Antitumor activity against mouse SVR cells implanted in athymic nude mouse assessed as tumor growth inhibition at 250 mg/kg, po qd for 10 days measured on day 4 relative to control. The settings on record: read-out: TGI.

In general, pIC50 refers to −log10 of the IC50, conventionally taken in molar units. Lower therefore signals a large IC50. Take `COc1ccc(-c2ssc(=S)c2-c2cc(OC)c(OC)c(OC)c2)cc1`: the pIC50 was 5.31 in test [1], 4.73 in test [2] and 4.68 in test [3].

On to `CO/N=c1/ssc(-c2ccc(OC)c(N)c2)c1-c1cc(OC)c(OC)c(OC)c1`, for which the negative logarithm of the IC50 (pIC50) is 5.36 in test [1], 5.37 in test [2] and less than 4.00 in test [3].

For `CO/N=c1/ssc(-c2cc(OC)c(OC)c(OC)c2)c1-c1ccc(OC)c(N)c1`, the pIC50 in test [1] is 6.29; in test [2] it was 6.04; in test [3] it was 5.71.

With `COc1ccc(-c2c(-c3cc(OC)c(OC)c(OC)c3)ssc2=S)cc1N`, the figures for the negative-log IC50 (pIC50) in test [1], in test [2] and in test [3] were 5.66, 5.52 and 5.58, respectively.

Consider `COc1ccc(-c2ssc(=S)c2-c2cc(OC)c(OC)c(OC)c2)cc1N`, for which the pIC50 is 6.49 in test [1], 6.08 in test [2] and 6.35 in test [3].

As to `COc1ccc(-c2c(-c3cc(OC)c(OC)c(OC)c3)ss/c2=N/O)cc1`, the negative-log IC50 (pIC50) in test [1], in test [2] and in test [3] was less than 4.00 each time.

Turning to `COc1ccc(-c2ss/c(=N/O)c2-c2cc(OC)c(OC)c(OC)c2)cc1`, the pIC50 was 4.86 in test [1], 5.18 in test [2] and 4.76 in test [3].

`COc1ccc(-c2ss/c(=N/O)c2-c2cc(OC)c(OC)c(OC)c2)cc1N`: the negative-log IC50 (pIC50) in test [4] was 4.89; in test [1] it was 7.00; in test [2] it was 5.03; in test [3], 5.37. Besides, the result in test [5] and in test [6] was Active.

Regarding `COc1ccc(-c2ssc(=S)c2-c2cc(OC)c(OC)c(OC)c2)cc1[N+](=O)[O-]`, the negative-log IC50 (pIC50) was less than 4.00 in test [1], 5.04 in test [2] and 4.87 in test [3].

Regarding `CO/N=c1/ssc(-c2ccc(OC)c(O)c2)c1-c1cc(OC)c(OC)c(OC)c1`, the pIC50 in test [1] is 4.84; in test [2], 5.34; in test [3] it was 5.00.

As to `COc1ccc(-c2ssc(=S)c2-c2cc(OC)c(OC)c(OC)c2)cc1O`, the negative-log IC50 (pIC50) in test [1] is 6.36; in test [2], 6.64; in test [3] it was 6.57.

For the compound `COc1ccc(-c2c(-c3cc(OC)c(OC)c(OC)c3)ssc2=S)cc1[N+](=O)[O-]`, the negative logarithm of the IC50 (pIC50) in test [1] is 4.42; in test [2], 5.45; in test [3], 4.35.

For the compound `COc1ccc(-c2c(-c3cc(OC)c(OC)c(OC)c3)ssc2=S)cc1`, the pIC50 in test [1] was 5.94; in test [2], 5.64; in test [3], 5.63.

For the compound `COc1ccc(-c2c(-c3cc(OC)c(OC)c(OC)c3)ssc2=O)cc1N`, the negative-log IC50 (pIC50) in test [1], in test [2] and in test [3] was less than 4.00 in each case.

With `COc1ccc(-c2c(-c3cc(OC)c(OC)c(OC)c3)ssc2=O)cc1[N+](=O)[O-]`, the negative-log IC50 (pIC50) in test [1], in test [2] and in test [3] was less than 4.00 in each case.

Take `COc1ccc(-c2ssc(=O)c2-c2cc(OC)c(OC)c(OC)c2)cc1[N+](=O)[O-]`: the pIC50 is 4.65 in test [1], 5.37 in test [2] and 6.36 in test [3].

Regarding `COc1ccc(-c2ss/c(=N/O)c2-c2cc(OC)c(OC)c(OC)c2)cc1O`, the pIC50 in test [1] was 6.07; in test [2], 6.14; in test [3], 6.70.

`CO/N=c1/ssc(-c2cc(OC)c(OC)c(OC)c2)c1-c1ccc(OC)c([N+](=O)[O-])c1`: the pIC50 in test [1], in test [2] and in test [3] was less than 4.00 each time.

On to `COc1ccc(/C=C\c2cc(OC)c(OC)c(OC)c2)cc1O` [COMBRETASTATIN A4], for which the negative-log IC50 (pIC50) in test [4] was 6.04; in test [1], 8.15; in test [2], 8.00; in test [3] it was 7.59.

As for `COc1ccc(-c2ssc(=O)c2-c2cc(OC)c(OC)c(OC)c2)cc1O`, the pIC50 in test [4] was 5.01; in test [1], 6.34; in test [2], 5.72; in test [3] it was 5.51. Also, the outcome in test [5] and in test [6] was Active.

Take `Cc1c(-c2cnccn2)ssc1=S` [OLTIPRAZ]: in test [7], the inhibition in vivo at 250 mg/kg amounted to 81%.

Turning to `COc1ccc(-c2c(-c3cc(OC)c(OC)c(OC)c3)ss/c2=N/O)cc1[N+](=O)[O-]`, the pIC50 is 5.28 in test [1], 5.52 in test [2] and 5.18 in test [3].

`COc1ccc(-c2ssc(=O)c2-c2cc(OC)c(OC)c(OC)c2)cc1`: the pIC50 was 6.49 in test [1], 6.33 in test [2] and 6.87 in test [3].

For the compound `COc1ccc(-c2c(-c3cc(OC)c(OC)c(OC)c3)ss/c2=N/O)cc1N`, the pIC50 in test [1], in test [2] and in test [3] was 5.54 each time.

As for `COc1ccc(-c2c(-c3cc(OC)c(OC)c(OC)c3)ssc2=O)cc1`, the negative-log IC50 (pIC50) in test [1], in test [2] and in test [3] was less than 4.00 throughout.

Source of the values: ChEMBL document CHEMBL3865818, “4,5-Diaryl-3H-1,2-dithiole-3-thiones and related compounds as combretastatin A-4/oltipraz hybrids: Synthesis, molecular modelling and evaluation as antiproliferative agents and inhibitors of tubulin” (Eur J Med Chem, 2016).
